Measured values taken from patent US8318769B2, “Substituted sulfonamide compounds” (Gruenethal GmbH, priority 2008, dated 2012).
Where a name gives a salt, the structure may show the parent alone. Read-outs that look alike come from different tables or passages of the source.

What was measured:
[1] = target: T1, human bradykinin 1 receptor (B1R) (Homo sapiens, UniProt P46663); experiment: FLIPR Ca2+ assay, B1R antagonism, human; format: cell-based; settings: 10 μM test substance, CHO K1 cells with human B1R gene (hB1R cells), Lys-Des-Arg9-bradykinin at EC80, % inhibition compared with the maximum achievable inhibition; for inhibition at 10 µM: read-out: B1R antagonism, human [10 μM] % inhibition
T1 construct: expressed in transfected cells
T1 sequence (P46663 1-353): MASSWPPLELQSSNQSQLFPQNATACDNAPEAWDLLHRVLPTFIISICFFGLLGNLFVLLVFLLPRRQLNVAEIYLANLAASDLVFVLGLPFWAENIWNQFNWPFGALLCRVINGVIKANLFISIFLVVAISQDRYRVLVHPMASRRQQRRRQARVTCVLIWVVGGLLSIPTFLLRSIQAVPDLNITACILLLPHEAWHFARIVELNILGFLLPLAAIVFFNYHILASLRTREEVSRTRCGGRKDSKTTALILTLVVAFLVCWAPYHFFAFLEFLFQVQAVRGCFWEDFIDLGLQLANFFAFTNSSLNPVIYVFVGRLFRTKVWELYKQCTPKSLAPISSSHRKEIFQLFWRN
Method in brief: (§1)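 Antagonism is given as % of maximum achievable suppression of agonist-evoked Ca2+ influx, measured by Fluo-4 peak fluorescence in FLIPR. Stable hB1R or rB1R CHO K1 lines received 10 μM compound for 10-20 min before EC80 Lys-Des-Arg9-bradykinin (human) or Des-Arg9-bradykinin (rat).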

[2] = target: T2, bradykinin 1 receptor (B1R) of the rat (Rattus norvegicus, UniProt P97583); experiment: FLIPR Ca2+ assay, B1R antagonism, rat; format: cell-based
T2 construct: expressed in transfected cells
T2 sequence (P97583 1-337): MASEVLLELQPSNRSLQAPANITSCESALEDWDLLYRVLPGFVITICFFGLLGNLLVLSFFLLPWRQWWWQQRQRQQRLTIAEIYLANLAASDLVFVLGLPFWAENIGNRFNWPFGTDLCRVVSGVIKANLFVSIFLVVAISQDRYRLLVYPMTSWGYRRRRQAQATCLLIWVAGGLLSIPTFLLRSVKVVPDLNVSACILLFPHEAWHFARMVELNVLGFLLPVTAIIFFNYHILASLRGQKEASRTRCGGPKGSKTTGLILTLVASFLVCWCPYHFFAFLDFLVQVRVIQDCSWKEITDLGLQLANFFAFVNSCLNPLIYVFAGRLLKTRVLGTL
Method in brief: as §1

[3] = CHO-K1, 10 μM test substance, CHO K1 cells with rat B1R gene (rB1R cells), Des-Arg9-bradykinin at EC80, % inhibition compared with the maximum achievable inhibition, read-out: B1R antagonism, rat [10 μM] % inhibition

Structure (SMILES) | inhibition at 10 µM [1] [%] | inhibition at 10 µM [2, 3] [%] | B1R antagonism, human [10 μM] % inhibition ([1]; 10 µM) [%] | inhibition at 10 µM ([2]; CHO-K1, read-out: B1R antagonism, rat [10 μM] % inhibition) [%]
COc1cc(C)c(S(=O)(=O)N(C)CCOCC(=O)N2CCC(OCCN3CCCC3)(c3ccncc3)CC2)c(C)c1C [Example 115, 4-methoxy-N,2,3,6-tetramethyl-N-[2-[2-oxo-2-[4-pyridin-4-yl-4-(2-pyrrolidin-1-yl-ethoxy)-piperidin-1-yl]-ethoxy]-ethyl]-benzenesulfonic acid amide] | 100 | 102 |  | 
COc1cc(C)c(S(=O)(=O)N2CCCCC2CCCC(=O)N2CCC(OCCN3CCCC3)(c3cccnc3)CC2)c(C)c1 (centres unmarked) [Example 2, 4-(1-(4-methoxy-2,6-dimethylphenylsulfonyl)piperidin-2-yl)-1-(4-(pyridin-3-yl)-4-(2-(pyrrolidin-1-yl)ethoxy)piperidin-1-yl)butan-1-one] |  |  | 97 | 99
COc1cc(C)c(S(=O)(=O)N(C)CCOCC(=O)N2CCC(OCCN3CCN(C)CC3)(c3cccnc3)CC2)c(C)c1 [Example 29, 4-methoxy-N,2,6-trimethyl-N-(2-(2-(4-(2-(4-methylpiperazin-1-yl)ethoxy)-4-(pyridin-3-yl)piperidin-1-yl)-2-oxoethoxy)ethyl)benzenesulfonamide] | 99 | 101 |  | 
COc1cc(C)c(S(=O)(=O)N2CCCCC2CCCC(=O)N2CCC(OCCN3CCCC3)(c3ccncc3)CC2)c(C)c1 (centres unmarked) [Example 90, 4-[1-[(4-methoxy-2,6-dimethyl-phenyl)sulfonyl]-piperidin-2-yl]-1-[4-pyridin-4-yl-4-(2-pyrrolidin-1-yl-ethoxy)-piperidin-1-yl]-butan-1-one] | 100 | 102 |  | 
CN1CCN(CCOC2(c3cccnc3)CCN(C(=O)COCC3CCc4ccccc4N3S(=O)(=O)c3ccc(Cl)c(Cl)c3)CC2)CC1 (centres unmarked) [Example 38, 2-((1-(3,4-dichlorophenylsulfonyl)-1,2,3,4-tetrahydroquinolin-2-yl)methoxy)-1-(4-(2-(4-methylpiperazin-1-yl)ethoxy)-4-(pyridin-3-yl)piperidin-1-yl)ethanone] | 74 | 98 |  | 
COc1cc(C)c(S(=O)(=O)N2CCCC[C@H]2COCC(=O)N2CCC(OCCN3CCCC3)(c3cccc(Cl)c3)CC2)c(C)c1 [Example 56, 1-[4-(3-chlorophenyl)-4-(2-pyrrolidin-1-yl-ethoxy)-piperidin-1-yl]-2-[[(2S)-1-[(4-methoxy-2,6-dimethyl-phenyl)sulfonyl]-piperidin-2-yl]-methoxy]-ethanone] | 99 | 100 |  | 
O=C(COCC1CCc2ccccc2N1S(=O)(=O)c1ccc(Cl)c(Cl)c1)N1CCC(OCCCN2CCCCC2)(c2cccnc2)CC1 (centres unmarked) [Example 19, 2-((1-(3,4-dichlorophenylsulfonyl)-1,2,3,4-tetrahydroquinolin-2-yl)methoxy)-1-(4-(3-(piperidin-1-yl)propoxy)-4-(pyridin-3-yl)piperidin-1-yl)ethanone] | 103 | 94 |  | 
CN1CCN(CCCOC2(c3cccnc3)CCN(C(=O)COCC3CCc4ccccc4N3S(=O)(=O)c3ccc(Cl)c(Cl)c3)CC2)CC1 (centres unmarked) [Example 37, 2-((1-(3,4-dichlorophenylsulfonyl)-1,2,3,4-tetrahydroquinolin-2-yl)methoxy)-1-(4-(3-(4-methylpiperazin-1-yl)propoxy)-4-(pyridin-3-yl)piperidin-1-yl)ethanone] | 77 | 99 |  | 
COc1cc(C)c(S(=O)(=O)N2CCCC[C@H]2COCC(=O)N2CCC(OCCN3CCCC3)(c3cccc(F)c3)CC2)c(C)c1 [Example 51, (S)-1-(4-(3-fluorophenyl)-4-(2-(pyrrolidin-1-yl)ethoxy)piperidin-1-yl)-2-((1-(4-methoxy-2,6-dimethylphenylsulfonyl)piperidin-2-yl)methoxy)ethanone] | 98 | 97 |  | 
COc1cc(C)c(S(=O)(=O)N2c3ccccc3CCC2COCC(=O)N2CCC(OCCN3CCCC3)(c3ccncc3)CC2)c(C)c1 (centres unmarked) [Example 103, 2-[[1-[(4-methoxy-2,6-dimethyl-phenyl)sulfonyl]-1,2,3,4-tetrahydro-quinolin-2-yl]-methoxy]-1-[4-pyridin-4-yl-4-(2-pyrrolidin-1-yl-ethoxy)-piperidin-1-yl]-ethanone] | 100 | 103 |  | 
Cc1cc(S(=O)(=O)N2CCCCC2CCC(=O)N2CCC(OCCCN3CCCC3)(c3cccnc3)CC2)c(C)cc1Cl (centres unmarked) [Example 43, 3-(1-(4-chloro-2,5-dimethylphenylsulfonyl)piperidin-2-yl)-1-(4-(pyridin-3-yl)-4-(3-(pyrrolidin-1-yl)propoxy)piperidin-1-yl)propan-1-one] | 86 | 67 |  | 
Cc1cc(S(=O)(=O)N2CCCCC2CCC(=O)N2CCC(OCCN3CCCCC3)(c3cccnc3)CC2)c(C)cc1Cl (centres unmarked) [Example 13, 3-(1-(4-chloro-2,5-dimethylphenylsulfonyl)piperidin-2-yl)-1-(4-(2-(piperidin-1-yl)ethoxy)-4-(pyridin-3-yl)piperidin-1-yl)propan-1-one] | 101 | 50 |  | 

Further lines, with some results ahead:

inhibition at 10 µM [1] [%] | inhibition at 10 µM [2, 3] [%] | Structure (SMILES) | B1R antagonism, human [10 μM] % inhibition ([1]; 10 µM) [%] | inhibition at 10 µM ([2]; CHO-K1, read-out: B1R antagonism, rat [10 μM] % inhibition) [%]
100 | 97 | O=C(COCC1CCCCN1S(=O)(=O)c1ccccc1C(F)(F)F)N1CCC(OCCN2CCCC2)(c2cccc(F)c2)CC1 (centres unmarked) [Example 118, 1-[4-(3-fluorophenyl)-4-(2-pyrrolidin-1-yl-ethoxy)-piperidin-1-yl]-2-[[1-[[2-(trifluoromethyl)-phenyl]sulfonyl]-piperidin-2-yl]-methoxy]-ethanone] |  | 
100 | 101 | O=C(COCC1CCCCN1S(=O)(=O)c1ccccc1C(F)(F)F)N1CCC(OCCN2CCCC2)(c2cccnc2)CC1 (centres unmarked) [Example 116, 1-[4-pyridin-3-yl-4-(2-pyrrolidin-1-yl-ethoxy)-piperidin-1-yl]-2-[[1-[[2-(trifluoromethyl)-phenyl]sulfonyl]-piperidin-2-yl]-methoxy]-ethanone] |  | 
39 | 102 | O=C(CC1CCCCN1S(=O)(=O)c1cccc(C(F)(F)F)c1)N1CCC(OCCN2CCCC2)(c2cccnc2)CC1 (centres unmarked) [Example 22, 1-(4-(pyridin-3-yl)-4-(2-(pyrrolidin-1-yl)ethoxy)piperidin-1-yl)-2-(1-(3-(trifluoromethyl)phenylsulfonyl)piperidin-2-yl)ethanone] |  | 
100 | 102 | COc1cc(C)c(S(=O)(=O)N2CCCC[C@H]2COCC(=O)N2CCC(OCCN3CCCC3)(c3cccnc3)CC2)c(C)c1 [Example 46, (S)-2-((1-(4-methoxy-2,6-dimethylphenylsulfonyl)piperidin-2-yl)methoxy)-1-(4-(pyridin-3-yl)-4-(2-(pyrrolidin-1-yl)ethoxy)piperidin-1-yl)ethanone hydrochloride] |  | 
100 | 101 | COc1cc(C)c(S(=O)(=O)N2CCCC[C@H]2COCC(=O)N2CCC(OCCN3CCC3)(c3cccnc3)CC2)c(C)c1 [Example 61, 1-[4-[2-(azetidin-1-yl)-ethoxy]-4-pyridin-3-yl-piperidin-1-yl]-2-[[(2S)-1-[(4-methoxy-2,6-dimethyl-phenyl)sulfonyl]-piperidin-2-yl]-methoxy]-ethanone] |  | 
70 | 60 | O=C(CCCC1CCCCN1S(=O)(=O)c1ccccc1C(F)(F)F)N1CCC(OCCN2CCCC2)(c2cccnc2)CC1 (centres unmarked) [Example 8, 1-(4-(pyridin-3-yl)-4-(2-(pyrrolidin-1-yl)ethoxy)piperidin-1-yl)-4-(1-(2-(trifluoromethyl)phenylsulfonyl)piperidin-2-yl)butan-1-one] |  | 
104 | 102 | COc1cc(C)c(S(=O)(=O)N2CCCCC2COCC(=O)N2CCC(OCCN3CCCC3)(c3cccnc3)CC2)c(C)c1 (centres unmarked) [Example 20, 2-((1-(4-methoxy-2,6-dimethylphenylsulfonyl)piperidin-2-yl)methoxy)-1-(4-(pyridin-3-yl)-4-(2-(pyrrolidin-1-yl)ethoxy)piperidin-1-yl)ethanone] |  | 
